*1 amine or outer side, *2 acyl side, *3 side chain or, on linkers, in order; H or OH if unused. Where a SMILES comes first, the peptide text is derived from it. Side-chain parts run from the residue outwards. [ ]: non-standard residue; d: D form. The star is where a group is joined. C18 diacid = O=C(O)CCCCCCCCCCCCCCCCC(=O)*; γGlu = O=C(O)[C@H](CCC(=O)[*:2])N[*:1]; NMeI = CC[C@H](C)[C@H](NC)C(=O)O; αMeL = CC(C)C[C@](C)(N)C(=O)O; Api = NC1(C(=O)O)CCNCC1; Pentanoyl = CCCCC(=O)*; AEEA = NCCOCCOCC(=O)O; Aib = CC(C)(N)C(=O)O
Legend:
[1] = target: T1, human CRF2a receptor (Homo sapiens, UniProt Q13324); assay: Activity at human CRF2a receptor, cAMP functional assay in TeloHEAC cells; assay type: cell-based; details: TeloHEAC cells stably expressing human CRF2a receptor, relative to urocortin 2 (100 nM = 100%)
T1 construct: expressed in transfected cells; host or cells: TeloHEAC cells
T1 sequence (Q13324 1-411): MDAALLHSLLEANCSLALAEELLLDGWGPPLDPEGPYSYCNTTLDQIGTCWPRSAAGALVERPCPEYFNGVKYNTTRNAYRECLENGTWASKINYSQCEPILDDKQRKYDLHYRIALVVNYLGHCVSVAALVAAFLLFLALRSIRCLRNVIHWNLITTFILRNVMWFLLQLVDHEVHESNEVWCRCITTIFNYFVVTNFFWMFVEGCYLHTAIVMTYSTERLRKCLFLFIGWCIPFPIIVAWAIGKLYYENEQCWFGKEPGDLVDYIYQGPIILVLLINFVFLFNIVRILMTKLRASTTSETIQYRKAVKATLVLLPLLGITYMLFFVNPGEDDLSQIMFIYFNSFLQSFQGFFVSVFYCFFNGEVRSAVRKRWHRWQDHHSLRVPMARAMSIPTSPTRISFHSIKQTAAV
Outline: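 TeloHEAC cells stably expressing human CRF2a (10000 cells/well, suspended in HBSS/20 mM HEPES with 2 mM IBMX) were exposed to compounds for 30 min at 37 °C. cAMP was read as the 665/620 nm fluorescence ratio after 1 h at room temperature. EC50 was derived relative to 100 nM urocortin 2, set as 100%.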

[2] = target: T2, CFR1R receptor (Homo sapiens, UniProt P34998); assay: Activity at anti-target CFR1R receptor, cAMP assay in CRF1R-overexpression CHO-K1 cells; assay type: cell-based; details: 100% = Sauvagine at 100 nM; for EC50: cAMP
T2 construct: host or cells: CHO-K1 (clone 2)
T2 sequence (P34998 24-415): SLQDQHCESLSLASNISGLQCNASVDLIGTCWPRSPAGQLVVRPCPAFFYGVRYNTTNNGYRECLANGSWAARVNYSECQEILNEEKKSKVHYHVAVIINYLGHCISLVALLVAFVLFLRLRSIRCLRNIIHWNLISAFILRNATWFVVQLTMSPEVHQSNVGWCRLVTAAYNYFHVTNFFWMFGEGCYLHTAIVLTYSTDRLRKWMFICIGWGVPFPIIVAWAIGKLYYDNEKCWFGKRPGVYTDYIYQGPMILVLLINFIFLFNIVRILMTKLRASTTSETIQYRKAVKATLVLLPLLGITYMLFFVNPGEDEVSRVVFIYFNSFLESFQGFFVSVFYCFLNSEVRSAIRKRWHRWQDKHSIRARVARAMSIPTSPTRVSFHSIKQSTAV
Outline: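 Clone 2; cryopreserved stocks (10% DMSO); 4000 cells/well final; 100% activation = Sauvagine 100 nM; otherwise as TeloHAEC protocol.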

Row | EC50 [1] [nM] | Emax (% I) [2] [% I] | EC50 [2] [nM] | Compound
1 | 0.63 | 3 | > 250 | CC[C@H](C)[C@H](NC)C(=O)N[C@H](C(=O)N[C@@H](CC(C)C)C(=O)N[C@@H](CO)C(=O)N[C@@H](CC(C)C)C(=O)N[C@@H](CC(=O)O)C(=O)N[C@@H](C(=O)N1CCC[C@H]1C(=O)N[C@H](C(=O)N[C@@H](CCCCN)C(=O)N[C@@H](CC(C)C)C(=O)N[C@@H](CCCCNC(=O)COCCOCCNC(=O)COCCOCCNC(=O)CC[C@H](NC(=O)CCCCCCCCCCCCCCCCC(=O)O)C(=O)O)C(=O)N[C@@H](CCCCN)C(=O)N[C@H](C(=O)N[C@@H](CC(C)C)C(=O)N[C@@H](CC(C)C)C(=O)N[C@@H](CCC(=O)O)C(=O)N[C@@H](CCC(N)=O)C(=O)N[C@@H](CCC(=O)O)C(=O)N[C@@H](CCCCN)C(=O)N[C@@H](CCC(N)=O)C(=O)N[C@@H](CCCCN)C(=O)N[C@@H](CCCCN)C(=O)N[C@@H](CCC(N)=O)C(=O)N[C@@H](CCCNC(=N)N)C(=O)N[C@@H](CCC(=O)O)C(=O)N[C@@H](CCC(N)=O)C(=O)N[C@@H](C)C(=O)N[C@@H](CCC(=O)O)C(=O)N[C@H](C(=O)N[C@@H](CC(N)=O)C(=O)NC1(C(=O)N[C@@H](CCC(N)=O)C(=O)N[C@H](C(=O)N[C@@H](CC(C)C)C(=O)N[C@@H](C)C(=O)N[C@@H](CCC(N)=O)C(=O)N[C@H](C(N)=O)C(C)C)[C@@H](C)CC)CCNCC1)[C@@H](C)O)[C@@H](C)CC)[C@@H](C)CC)C(C)C)C(C)C [compound 117] (H-[NMeI]VLSLD[dV]PIKLK([AEEA-AEEA-γGlu-C18 diacid])KILLEQEKQKKQREQAETN[Api]QILAQV-NH2)
2 | 1.62 | 5 | > 250 | CC[C@H](C)[C@H](NC)C(=O)N[C@H](C(=O)N[C@@H](CC(C)C)C(=O)N[C@@H](CO)C(=O)N[C@@H](CC(C)C)C(=O)N[C@@H](CC(=O)O)C(=O)N[C@@H](C(=O)N1CCC[C@H]1C(=O)N[C@H](C(=O)N[C@@H](CCCCN)C(=O)N[C@@](C)(CC(C)C)C(=O)N[C@@H](CCCCNC(=O)COCCOCCNC(=O)COCCOCCNC(=O)CC[C@H](NC(=O)CCCCCCCCCCCCCCCCC(=O)O)C(=O)O)C(=O)N[C@@H](CCCCN)C(=O)N[C@H](C(=O)N[C@@H](CC(C)C)C(=O)N[C@@H](CC(C)C)C(=O)N[C@@H](CCC(=O)O)C(=O)N[C@@H](CCC(N)=O)C(=O)N[C@@H](CCC(=O)O)C(=O)N[C@@H](CCCCN)C(=O)N[C@@H](CCC(N)=O)C(=O)N[C@@H](CCCCN)C(=O)N[C@@H](CCCCN)C(=O)N[C@@H](CCC(N)=O)C(=O)N[C@@H](CCCNC(=N)N)C(=O)N[C@@H](CCC(=O)O)C(=O)N[C@@H](CCC(N)=O)C(=O)N[C@@H](C)C(=O)N[C@@H](CCC(=O)O)C(=O)N[C@H](C(=O)N[C@@H](CC(N)=O)C(=O)NC(C)(C)C(=O)N[C@@H](CCC(N)=O)C(=O)N[C@H](C(=O)N[C@@H](CC(C)C)C(=O)N[C@@H](C)C(=O)N[C@@H](CCC(N)=O)C(=O)N[C@H](C(N)=O)C(C)C)[C@@H](C)CC)[C@@H](C)O)[C@@H](C)CC)[C@@H](C)CC)C(C)C)C(C)C [compound 119] (H-[NMeI]VLSLD[dV]PIK[αMeL]K([AEEA-AEEA-γGlu-C18 diacid])KILLEQEKQKKQREQAETN[Aib]QILAQV-NH2)
3 | 1.33 | 3 | > 250 | CCCCC(=O)N[C@H](C(=O)N[C@@H](CC(C)C)C(=O)N[C@@H](CO)C(=O)N[C@@H](CC(C)C)C(=O)N[C@@H](CC(=O)O)C(=O)N[C@@H](C(=O)N1CCC[C@H]1C(=O)N[C@H](C(=O)N[C@@H](CCCCN)C(=O)N[C@@H](CC(C)C)C(=O)N[C@@H](CCCCNC(=O)COCCOCCNC(=O)COCCOCCNC(=O)CC[C@H](NC(=O)CCCCCCCCCCCCCCCCC(=O)O)C(=O)O)C(=O)N[C@@H](CCCCN)C(=O)N[C@H](C(=O)N[C@@H](CC(C)C)C(=O)N[C@@H](CC(C)C)C(=O)N[C@@H](CCC(=O)O)C(=O)N[C@@H](CCC(N)=O)C(=O)N[C@@H](CCC(=O)O)C(=O)N[C@@H](CCCCN)C(=O)N[C@@H](CCC(N)=O)C(=O)N[C@@H](CCCCN)C(=O)N[C@@H](CCCCN)C(=O)N[C@@H](CCC(N)=O)C(=O)N[C@@H](CCCNC(=N)N)C(=O)N[C@@H](CCC(=O)O)C(=O)N[C@@H](CCC(N)=O)C(=O)N[C@@H](C)C(=O)N[C@@H](CCC(=O)O)C(=O)N[C@H](C(=O)N[C@@H](CC(N)=O)C(=O)NC(C)(C)C(=O)N[C@@H](CCC(N)=O)C(=O)N[C@H](C(=O)N[C@@H](CC(C)C)C(=O)N[C@@H](C)C(=O)N[C@@H](CCC(N)=O)C(=O)N[C@H](C(N)=O)C(C)C)[C@@H](C)CC)[C@@H](C)O)[C@@H](C)CC)[C@@H](C)CC)C(C)C)C(C)C [compound 120] (Pentanoyl-VLSLD[dV]PIKLK([AEEA-AEEA-γGlu-C18 diacid])KILLEQEKQKKQREQAETN[Aib]QILAQV-NH2)
4 | 0.67 | 5 | > 250 | CCCCC(=O)N[C@H](C(=O)N[C@@H](CC(C)C)C(=O)N[C@@H](CO)C(=O)N[C@@H](CC(C)C)C(=O)N[C@@H](CC(=O)O)C(=O)N[C@@H](C(=O)N1CCC[C@H]1C(=O)N[C@H](C(=O)N[C@@H](CCCCN)C(=O)N[C@@H](CC(C)C)C(=O)N[C@@H](CCCCNC(=O)COCCOCCNC(=O)COCCOCCNC(=O)CC[C@H](NC(=O)CCCCCCCCCCCCCCCCC(=O)O)C(=O)O)C(=O)N[C@@H](CCCCN)C(=O)N[C@H](C(=O)N[C@@H](CC(C)C)C(=O)N[C@@H](CC(C)C)C(=O)N[C@@H](CCC(=O)O)C(=O)N[C@@H](CCC(N)=O)C(=O)N[C@@H](CCC(=O)O)C(=O)N[C@@H](CCCCN)C(=O)N[C@@H](CCC(N)=O)C(=O)N[C@@H](CCCCN)C(=O)N[C@@H](CCCCN)C(=O)N[C@@H](CCC(N)=O)C(=O)N[C@@H](CCCNC(=N)N)C(=O)N[C@@H](CCC(=O)O)C(=O)N[C@@H](CCC(N)=O)C(=O)N[C@@H](C)C(=O)N[C@@H](CCC(=O)O)C(=O)N[C@H](C(=O)N[C@@H](CC(N)=O)C(=O)N[C@@H](C)C(=O)N[C@@H](CCC(N)=O)C(=O)N[C@H](C(=O)N[C@@H](CC(C)C)C(=O)N[C@@H](C)C(=O)N[C@@H](CCC(N)=O)C(=O)N[C@H](C(N)=O)C(C)C)[C@@H](C)CC)[C@@H](C)O)[C@@H](C)CC)[C@@H](C)CC)C(C)C)C(C)C [compound 122] (Pentanoyl-VLSLD[dV]PIKLK([AEEA-AEEA-γGlu-C18 diacid])KILLEQEKQKKQREQAETNAQILAQV-NH2)
5 | 0.7 | 14 | > 250 | CCCCC(=O)N[C@H](C(=O)N[C@@H](CC(C)C)C(=O)N[C@@H](CO)C(=O)N[C@@H](CC(C)C)C(=O)N[C@@H](CC(=O)O)C(=O)N[C@@H](C(=O)N1CCC[C@H]1C(=O)N[C@H](C(=O)N[C@@H](CCCCN)C(=O)N[C@@](C)(CC(C)C)C(=O)N[C@@H](CCCCNC(=O)COCCOCCNC(=O)COCCOCCNC(=O)CC[C@H](NC(=O)CCCCCCCCCCCCCCCCC(=O)O)C(=O)O)C(=O)N[C@@H](CCCCN)C(=O)N[C@H](C(=O)N[C@@H](CC(C)C)C(=O)N[C@@H](CC(C)C)C(=O)N[C@@H](CCC(=O)O)C(=O)N[C@@H](CCC(N)=O)C(=O)N[C@@H](CCC(=O)O)C(=O)N[C@@H](CCCCN)C(=O)N[C@@H](CCC(N)=O)C(=O)N[C@@H](CCCCN)C(=O)N[C@@H](CCCCN)C(=O)N[C@@H](CCC(N)=O)C(=O)N[C@@H](CCCNC(=N)N)C(=O)N[C@@H](CCC(=O)O)C(=O)N[C@@H](CCC(N)=O)C(=O)N[C@@H](C)C(=O)N[C@@H](CCC(=O)O)C(=O)N[C@H](C(=O)N[C@@H](CC(N)=O)C(=O)NC(C)(C)C(=O)N[C@@H](CCC(N)=O)C(=O)N[C@H](C(=O)N[C@@H](CC(C)C)C(=O)N[C@@H](C)C(=O)N[C@@H](CCC(N)=O)C(=O)N[C@H](C(N)=O)C(C)C)[C@@H](C)CC)[C@@H](C)O)[C@@H](C)CC)[C@@H](C)CC)C(C)C)C(C)C [compound 123] (Pentanoyl-VLSLD[dV]PIK[αMeL]K([AEEA-AEEA-γGlu-C18 diacid])KILLEQEKQKKQREQAETN[Aib]QILAQV-NH2)
